This assay addresses T1, activin receptor-like kinase 5 (ALK5) (Homo sapiens, UniProt P36897).
T1 construct: gene TGFBR1; GST-ALK5
T1 sequence (P36897 34-503): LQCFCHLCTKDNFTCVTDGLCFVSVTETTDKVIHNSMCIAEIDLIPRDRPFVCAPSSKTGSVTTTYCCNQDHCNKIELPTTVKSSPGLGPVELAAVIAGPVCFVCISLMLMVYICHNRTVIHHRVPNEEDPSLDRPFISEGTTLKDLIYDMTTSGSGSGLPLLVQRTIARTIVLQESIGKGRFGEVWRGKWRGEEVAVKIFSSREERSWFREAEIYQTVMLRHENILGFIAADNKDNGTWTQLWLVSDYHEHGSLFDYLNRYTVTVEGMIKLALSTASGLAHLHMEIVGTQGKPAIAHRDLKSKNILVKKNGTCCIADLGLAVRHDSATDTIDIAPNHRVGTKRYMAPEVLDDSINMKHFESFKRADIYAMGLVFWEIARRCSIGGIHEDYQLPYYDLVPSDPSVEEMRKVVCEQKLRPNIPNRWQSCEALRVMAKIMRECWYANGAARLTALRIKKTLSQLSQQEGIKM
In words: LanthaScreen Eu kinase binding assay (TR-FRET tracer displacement); also in vitro GST-Smad3 phosphorylation assay. On the technique in general: TR-FRET usually uses a lanthanide donor and a delayed reading to cut background.

For three compounds, IC50 results are on record in PMC6370799, “Flavones hydroxylated at 5, 7, 3′ and 4′ ameliorate skin fibrosis via inhibiting activin receptor-like kinase 5 kinase activity” (Cell Death & Disease, 2019).

Molecules are shown by their SMILES.

In the case of `O=c1cc(-c2ccc(O)c(O)c2)oc2cc(O)cc(O)c12` [luteolin], the IC50 came out at 1060 nM.
For `O=c1c(O)c(-c2cc(O)c(O)c(O)c2)oc2cc(O)cc(O)c12` [myricetin] the value was 4080 nM.
For `O=c1c(O)c(-c2ccc(O)c(O)c2)oc2cc(O)cc(O)c12` [quercetin] the value was 1480 nM.

One may read the IC50 as the midpoint of a concentration-inhibition curve.
